# Measurements reported in the supplement of paper PMC11061612.
# How the values were obtained:
# Test in all cases: Bliss excess, mean over the matrix (fraction); higher = more synergy
# [1] = system: SBC-5 (Small Cell Lung Carcinoma)
# How it was run: (§1)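 After 24 hours at 37°C and 5% CO2 in 1536-well plates, cells in DMEM/F12 or RPMI plus 10% FBS received two-drug dose matrices for 72 hours. Viability came from CellTiter-Glo 2.0 luminescence and was scaled as inhibition, anchored at 0 by vehicle wells and at 1 by blank wells. Combination Emax is taken as the second-highest inhibition in the matrix, and Bliss excess as the observed combination effect less EA + EB − EA·EB, with EA and EB the single-agent effects.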
# [2] = system: IGROV-1 (Ovarian Carcinoma)
# How it was run: as §1
# [3] = system: JURL-MK1 (Chronic Myelogenous Leukemia)
# How it was run: as §1
# [4] = system: TK (B-Cell Non-Hodgkin's Lymphoma)
# How it was run: as §1
# [5] = system: SCC90 (Head and Neck Carcinoma)
# How it was run: as §1
# [6] = system: C32 (Melanoma)
# How it was run: as §1
# [7] = system: CAL-85-1 (Breast Carcinoma)
# How it was run: as §1
# [8] = system: OCI-M1 (Acute Myeloid Leukemia)
# How it was run: as §1
# [9] = system: NTERA-2-cl-D1 (Other Solid Carcinomas)
# How it was run: as §1
# [10] = system: MG-63 (Osteosarcoma)
# How it was run: as §1
# [11] = system: NCI-H2170 (Squamous Cell Lung Carcinoma)
# How it was run: as §1
# [12] = system: NCI-H2452 (Mesothelioma)
# How it was run: as §1
# [13] = system: SK-MEL-24 (Melanoma)
# How it was run: as §1
# [14] = system: OVKATE (Ovarian Carcinoma)
# How it was run: as §1
# [15] = system: DK-MG (Glioblastoma)
# How it was run: as §1
# [16] = system: SK-N-DZ (Neuroblastoma)
# How it was run: as §1
# [17] = system: NCI-H1048 (Small Cell Lung Carcinoma)
# How it was run: as §1
# [18] = system: SBC-3 (Small Cell Lung Carcinoma)
# How it was run: as §1
# [19] = system: ATN-1 (T-Lymphoblastic Leukemia)
# How it was run: as §1
# [20] = system: BT-474 (Breast Carcinoma)
# How it was run: as §1
Compound,Bliss excess [1],Bliss excess [2],Bliss excess [3],Bliss excess [4],Bliss excess [5],Bliss excess [6],Bliss excess [7],Bliss excess [8],Bliss excess [9],Bliss excess [10],Bliss excess [11],Bliss excess [12],Bliss excess [13],Bliss excess [14],Bliss excess [15],Bliss excess [16],Bliss excess [17],Bliss excess [18],Bliss excess [19],Bliss excess [20]
"COc1nnc2ccc(N3CCC(c4ccc(OCCN5CCN(C)C(=O)[C@H]5C)cc4)CC3)nn12 [AZD5153] + C[C@@H]1COCCN1C2=NC(=NC(=C2)C3(CC3)[S@](=N)(=O)C)C4=C5C=CNC5=NC=C4 [AZD6738] (first compound max 1 µM, 7x7, partner max 10 µM)",-0.0151,0.0079,0.0077,0.0034,0.0164,0.0069,-0.006,-0.0165,0.0005,0.0223,0.0964,0.0045,-0.0037,-0.0027,-0.0073,0.0472,0.029,-0.032,0.0411,0.0788
"COc1nnc2ccc(N3CCC(c4ccc(OCCN5CCN(C)C(=O)[C@H]5C)cc4)CC3)nn12 [AZD5153] + Cc1c2c(nn1C)CSCc1cc(n(C)n1)CSc1cc(c3ccccc3c1)OCCCc1c(C(=O)O)n(C)c3c-2c(Cl)ccc13 [AZD5991] (first compound max 1 µM, 7x7, partner max 1 µM)",-0.0062,-0.0069,-0.055,-0.0019,0.0814,0.142,-0.0157,-0.018,0.0698,-0.0302,-0.0283,-0.0265,-0.003,-0.0209,-0.0037,-0.0117,0.0059,-0.0503,-0.0304,-0.0012
"COc1nnc2ccc(N3CCC(c4ccc(OCCN5CCN(C)C(=O)[C@H]5C)cc4)CC3)nn12 [AZD5153] + Cn1cnc2c(F)c(Nc3ccc(Br)cc3Cl)c(C(=O)NOCCO)cc21 [Selumetinib] (first compound max 1 µM, 7x7, partner max 10 µM)",0.001,-0.0391,0.0397,-0.0524,0.098,0.0709,-0.0298,0.0301,0.0236,-0.0246,-0.0712,-0.029,-0.0003,-0.0413,-0.032,0.0017,-0.0108,-0.0811,0.0098,-0.0245
"Cc1c2c(nn1C)CSCc1cc(n(C)n1)CSc1cc(c3ccccc3c1)OCCCc1c(C(=O)O)n(C)c3c-2c(Cl)ccc13 [AZD5991] + C=CCn1c(=O)c2cnc(Nc3ccc(N4CCN(C)CC4)cc3)nc2n1-c1cccc(C(C)(C)O)n1 [AZD1775] (first compound max 1 µM, partner max 1 µM)",0.0501,0.0847,0.0395,-0.0721,-0.0001,0.0452,-0.0194,0.0066,0.0383,-0.0317,-0.0274,0.0015,0.0416,-0.0123,0.0168,0.0464,0.0002,-0.0043,-0.0027,-0.0298
"Cc1c2c(nn1C)CSCc1cc(n(C)n1)CSc1cc(c3ccccc3c1)OCCCc1c(C(=O)O)n(C)c3c-2c(Cl)ccc13 [AZD5991] + CC1(C)CCC(CN2CCN(c3ccc(C(=O)NS(=O)(=O)c4ccc(NCC5CCOCC5)c([N+](=O)[O-])c4)c(Oc4cnc5[nH]ccc5c4)c3)CC2)=C(c2ccc(Cl)cc2)C1 [Venetoclax] (first compound max 1 µM, 7x7, partner max 1 µM)",-0.0218,-0.0326,-0.0133,0.174,0.0246,0.0147,-0.0296,-0.0076,0.0217,0.0034,-0.0333,-0.0471,-0.0426,-0.0527,-0.0696,0.0428,0.049,0.0727,0.0429,-0.0279
"Cc1c2c(nn1C)CSCc1cc(n(C)n1)CSc1cc(c3ccccc3c1)OCCCc1c(C(=O)O)n(C)c3c-2c(Cl)ccc13 [AZD5991] + CCN(CCO)CCCOc1ccc2c(Nc3cc(CC(=O)Nc4cccc(F)c4)[nH]n3)ncnc2c1 [AZD2811] (first compound max 1 µM, 7x7, partner max 1 µM)",0.0523,-0.0053,0.098,0.0228,0.081,0.05,-0.0011,0.068,0.0704,0.0186,0.0348,-0.0486,0.0258,-0.09,-0.0543,0.043,0.0766,0.0082,-0.0413,0.0314
"Cc1c2c(nn1C)CSCc1cc(n(C)n1)CSc1cc(c3ccccc3c1)OCCCc1c(C(=O)O)n(C)c3c-2c(Cl)ccc13 [AZD5991] + C[C@@H]1COCCN1C2=NC(=NC(=C2)C3(CC3)[S@](=N)(=O)C)C4=C5C=CNC5=NC=C4 [AZD6738] (first compound max 1 µM, 7x7, partner max 10 µM)",0.0509,0.0449,0.0056,0.0536,0.0141,0.0531,-0.0233,0.0061,0.0936,0.0127,0.0272,0.0425,0.0025,-0.0421,0.046,-0.0078,0.0445,0.0405,0.0085,0.0367
"Cc1c2c(nn1C)CSCc1cc(n(C)n1)CSc1cc(c3ccccc3c1)OCCCc1c(C(=O)O)n(C)c3c-2c(Cl)ccc13 [AZD5991] + C[C@@H](Nc1cc(F)cc(F)c1)c1cc(C(=O)N(C)C)cc2c(=O)cc(N3CCOCC3)oc12 [AZD8186] (first compound max 1 µM, 7x7, partner max 3 µM)",0.0033,-0.0611,-0.0112,-0.0143,0.0186,0.0051,-0.0067,-0.0343,0.0081,-0.0213,0.0095,0.0441,-0.0081,-0.0298,0.0095,-0.0328,0.0019,-0.0341,-0.0131,-0.0099
"Cc1c2c(nn1C)CSCc1cc(n(C)n1)CSc1cc(c3ccccc3c1)OCCCc1c(C(=O)O)n(C)c3c-2c(Cl)ccc13 [AZD5991] + Cc1cc2ncnn2cc1Nc1ncc2c(n1)n(C1CCOCC1)c(=O)n2C [AZD7648] (first compound max 1 µM, 7x7, partner max 10 µM)",-0.0447,-0.103,-0.0227,-0.0046,-0.029,-0.0308,-0.055,-0.001,-0.0697,-0.0265,-0.0144,-0.0065,-0.0134,-0.0347,-0.101,-0.0564,-0.0227,-0.0801,-0.0513,-0.0305
"Cc1c2c(nn1C)CSCc1cc(n(C)n1)CSc1cc(c3ccccc3c1)OCCCc1c(C(=O)O)n(C)c3c-2c(Cl)ccc13 [AZD5991] + Cn1cnc2c(F)c(Nc3ccc(Br)cc3Cl)c(C(=O)NOCCO)cc21 [Selumetinib] (first compound max 1 µM, 7x7, partner max 3 µM)",0,0.0372,0.0259,-0.009,0.0581,0.0678,-0.0162,0.03,0.0115,-0.042,-0.0377,0.0633,0.0006,-0.0724,0.0143,0.018,-0.0224,-0.0674,-0.0672,-0.0205
"C[C@@H]1COCCN1c1cc(C2([S@](C)(=N)=O)CC2)nc(-c2ccnc3[nH]ccc23)n1 [AZD6738] + O=C(c1cc(Cc2n[nH]c(=O)c3ccccc23)ccc1F)N1CCN(C(=O)C2CC2)CC1 [Olaparib] (first compound max 10 µM, 7x7, partner max 10 µM)",0.0025,-0.0169,-0.021,-0.0552,0.021,0.0019,-0.0003,-0.017,0.0898,0.047,-0.0373,-0.0415,-0.0105,-0.0115,0.0079,-0.0019,0.0581,-0.0328,0.0169,-0.0135
"NC1(C(=O)N[C@@H](CCO)c2ccc(Cl)cc2)CCN(c2ncnc3[nH]ccc23)CC1 [Capivasertib] + CC(=O)c1c(C)c2cnc(Nc3ccc(N4CCNCC4)cn3)nc2n(C2CCCC2)c1=O [Palbociclib] (first compound max 10 µM, 7x7, partner max 10 µM)",0.0352,-0.048,-0.0233,-0.0218,-0.0256,0.0018,-0.0019,-0.0056,0.0373,0.0404,0.0137,-0.02,-0.0514,-0.018,-0.0228,0.0628,-0.0269,0.0265,-0.0217,-0.0261
"NC1(C(=O)N[C@@H](CCO)c2ccc(Cl)cc2)CCN(c2ncnc3[nH]ccc23)CC1 [Capivasertib] + CC(C)n1c(=O)n(C)c2cnc3cc(F)c(-c4ccc(OCCCN5CCCCC5)nc4)cc3c21 [AZD1390] (first compound max 10 µM, 7x7, partner max 0.3 µM)",-0.0792,-0.0147,-0.0489,-0.0045,-0.0484,-0.0343,-0.0213,-0.0268,0.0115,-0.0844,-0.0679,-0.0922,-0.0251,-0.0549,-0.0847,-0.0605,-0.037,-0.0144,-0.062,-0.0406
"NC1(C(=O)N[C@@H](CCO)c2ccc(Cl)cc2)CCN(c2ncnc3[nH]ccc23)CC1 [Capivasertib] + CCN(CCO)CCCOc1ccc2c(Nc3cc(CC(=O)Nc4cccc(F)c4)[nH]n3)ncnc2c1 [AZD2811] (first compound max 10 µM, 7x7, partner max 1 µM)",0.0526,-0.0632,0.0026,0.0103,0.0332,0.0477,-0.0241,0.066,0.0106,-0.0295,0.0135,-0.079,-0.0891,-0.0367,-0.0447,0.0051,-0.0003,0.059,-0.0813,0.0025
